Legend:
[1] = cited from earlier work; for intensity as a sweetener (strength of sweetness): comparison among the four optical isomers of monatin, Patent Document 5
[2] = solubility in ethanol (crystallization with ethanol as poor solvent); assay type: physicochemical; details: compared with (2R,4R) monatin
Excerpt: It is also possible to efficiently separate the steric isomers by utilizing the difference in solubility of (2S,4R) monatin and (2R,4R) monatin or of (2R,4S) monatin and (2S,4S) monatin in ethanol. […] Therefore, before crystallization of (2R,4R) monatin (salt), (2S,4R) monatin is firstly crystallized and the resulting crystals are removed. […] In case crystals of (2S,4R) monatin are previously removed by means of crystallization, it is possible to efficiently remove (2S,4R) monatin from the reaction solution when the crystallizing temperature is set at as high as about 70 to 80° C. and the crystals prepared by the crystallization are preferably filtered when they are still at high temperature. In addition, the crystals of (2R,4R) monatin (salt) prepared may be recrystallized the same as above for making the purity higher. The above is also the same in the case of (2R,4S) monatin and (2S,4S) monatin.

Row | solubility in ethanol [2] | Compound | intensity as a sweetener (strength of sweetness) [1] | sweet taste relative to sucrose ([1]; compared with sucrose, Patent Document 1)
1 |  | N[C@H](C[C@@](O)(Cc1c[nH]c2ccccc12)C(=O)O)C(=O)O (stereo in doubt) [(2R,4R) monatin, 4-hydroxy-4-(3-indolylmethyl)-2-aminoglutaric acid] | far better in terms of intensity as a sweetener | 
2 |  | N[C@@H](C[C@@](O)(Cc1c[nH]c2ccccc12)C(=O)O)C(=O)O (stereo in doubt) [(2R,4S) monatin, 4-hydroxy-4-(3-indolylmethyl)-2-aminoglutaric acid] | far better in terms of intensity as a sweetener | 
3 | low as compared with (2R,4R) monatin | N[C@@H](C[C@@](O)(Cc1c[nH]c2ccccc12)C(=O)O)C(=O)O (stereo in doubt) [(2S,4R) monatin, 4-hydroxy-4-(3-indolylmethyl)-2-aminoglutaric acid] | lower strength of sweetness | 
4 |  | N[C@@H](C[C@@](O)(Cc1c[nH]c2ccccc12)C(=O)O)C(=O)O (stereo in doubt) [(2S,4S) monatin, 4-hydroxy-4-(3-indolylmethyl)-2-aminoglutaric acid] | lower strength of sweetness | several hundred times as sweet as sucrose

Source: patent publication US7534898B2, “Process for producing monatin or salt thereof” (Ajinomoto Co., Inc., priority 2004, dated 2009)
